Test results reported in publication PMC9183037 (Polymers, 2022).

Experiments:
type 2 diabetic rats = test: In vivo pharmacodynamics study: blood glucose in type 2 diabetic rats; set-up: species or system Sprague-Dawley (SD) rats; conditions: T2DM rats, subcutaneous 65 μg/kg
Method: SD rats were fed high-fat diets containing 45% fat to induce insulin resistance. After one-month diets, a standard 16 h fast in SD rats was conducted, and a 30 mg/mL STZ solution prepared with 0.1 mol/L citrate-sodium citrate buffer (pH 4.5) was injected intraperitoneally at a dose of 30 mg/kg (avoid light, the injection was completed within 30 min). Then the rats were given sufficient water and fasted. Restored the diet after 2 h. If the fasting blood glucose was higher than 16.67 mmol/L for two consecutive times, and the rats were accompanied by significant polydipsia, polyphagia, polyuria, and weight loss, it is considered to be successfully modeled and subsequent experiments could be carried out. To evaluate therapeutic effects, thirty T2DM rats were randomly divided into five groups, fasted overnight, and labeled respectively. […] Blood samples were collected from the tail tip at 0, 0.5, 1, 2, 3, 4, 6, and 10 h after administration to observe the changes in blood glucose levels, and the blood glucose-time curve was plotted.

Raji-B cells = test: Cytotoxicity by MTT assay, 4 h incubation; format: cell-based, Human; conditions: 0.03-1 μM
Method: (§1) The cytotoxicity of chitosan-based nanoparticles was measured by MTT assay. Caco-2, HT-29, and Raji-B cells at the logarithmic growth stage were inoculated on 96-well plates at 5 × 10^3 cells per well, respectively. The cells were cultured at 37 °C, 5% CO2 for 48 h, then the culture medium was removed and 150 μL of drug-containing culture medium was added to the final concentrations of 1, 0.5, 0.25, 0.125, 0.06, and 0.03 μM. After incubation for 4 h, 20 μL of MTT solution (5 mg/mL) was added to each well, which was incubated for an additional 4 h. Then, the culture medium was discarded and replaced with 150 μL dimethyl sulfoxide. The plates were placed on the shaker and oscillated for 10 min.
(§2) The absorbance was measured at 570 nm using an enzyme marker (ST360, KHB, Shanghai, China). Cell viability was calculated as a percentage of the absorbance relative to that of the control.

Caco-2 cells = test: Cytotoxicity by MTT assay, 4 h incubation; format: cell-based, Human; conditions: 0.03-1 μM
Method: as §1, §2

HT-29 cells = test: Cytotoxicity by MTT assay, 4 h incubation; format: cell-based, Human; conditions: 0.03-1 μM
Method: as §1, §2

Row | Compound | time of minimum blood glucose concentration (type 2 diabetic rats) | change of blood glucose concentration (type 2 diabetic rats; 0-10 h) | cytotoxicity to Raji B cells (Raji-B cells) | cytotoxicity to Caco-2 cells (Caco-2 cells) | cytotoxicity to HT-29 cells (HT-29 cells)
1 | Insulin | 3 h | decreased significantly within 3 h | – | – | –
2 | CCN(CC)c1ccc2c(-c3ccccc3C(=O)O)c3ccc(=[N+](CC)CC)cc-3oc2c1 [Rhodamine B] | – | – | no cytotoxicity | no cytotoxicity | no cytotoxicity
